Data reported in article PMC9848259 (Journal of Enzyme Inhibition and Medicinal Chemistry, 2023).

Legend:
ACHE and BACE-1A = target: T1, ACHE and BACE-1A (Homo sapiens, UniProt P22303+P56817); experiment: Yeast three-hybrid (Y3H) assay with β-galactosidase readout; type: cell-based, Saccharomyces cerevisiae; conditions: 10 µM ligand
T1 construct: the prepared pGBKT7-hACHE plasmid contained the cDNA fragment encoding for aa 52–577; obtained from the extracellular, N-terminal domain (aa 46–457) of BACE1A (GenBank: AF204943.1); host or cells: Saccharomyces cerevisiae Y2HGold (bait) mated with Y187 (prey)
Procedure: The Y3H method was used to analyse the possible hybrid-ligand induced interactions between five selected proteins. […]. Yeast codon optimisation was performed to facilitate high expression of human recombinant proteins in Saccharomyces cerevisae. The fragments for the signal peptide (aa 1–51) and domain responsible for protein tetramerization (aa 578–611) were obtained from the cDNA encoding for human ACHE (GenBank M55040.1). Therefore, the prepared pGBKT7-hACHE plasmid contained the cDNA fragment encoding for aa 52–577. […]
The yeast ẞ-galactosidase microplate assay protocol (stopped) was used to evaluate the ẞ-galactosidase activity in the yeast culture according to the manufacturer’s instructions. […] Optical density was measured at 660 nm and absorbance at 420 nm by a Synergy H1 spectrophotometer (Biotek). In the quantitative ẞ-galactosidase assay, the hybrid ligand 3e was used. […]

SH-SY5Y cells [1] = experiment: Neuroprotection against rotenone/oligomycin A, co-incubation, MTT test; type: cell-based, human; conditions: Rotenone/Oligomycin A 30/10 µM
SHSY5Y cell = experiment: Toxicity towards SH-SY5Y cells (MTT); type: cell-based; conditions: 0.1–10 µM
Procedure: The SH-SY5Y (human neuroblastoma) (European Collection of Cell Culture) was chosen to determine the neuroprotective properties of the novel compounds. The Ham’s F12:EMEM (1:1) medium was used (Sigma Aldrich), comprising 15% Foetal Bovine Serum (Biowest), 2 mM Glutamine (Sigma Aldrich), 100 units/ml penicillin and […] (Biological Industries) and 1% Non-Essential Amino Acids (Biological Industries).
SH-SY5Y cells were seeded at a density of 5 × 10^3 cells/well in 96-well plates. The cells were cultured for 24 h (37 °C, 5% CO2). After 24 h of incubation, the medium was removed and cells were exposed to 100 µl of the compound at a range of concentrations, or of culture medium alone (blank control). After incubation, the medium was removed, washed with PBS and 50 µl of the MTT solution was added. The plates were then incubated for two hours (37 °C, 5% CO2). The MTT solution was then removed from the wells and 100 µl of DMSO was added. The plates were incubated for 10 min at room temperature and then 5 µl of Sorensen Buffer was added. The plates were swayed and the absorbance measured in a microplate reader (Synergy H1, BioTek, Winooski, VT, USA) at a wavelength of 570 nm. Cell viability was expressed as a percentage of control values (blank control). The experiments were done in triplicate.

SH-SY5Y cells [2] = experiment: Neuroprotection against H2O2-induced oxidative stress, MTT test; type: cell-based, human; conditions: H2O2 100 µM
[3] = target: T2, BuChE (from equine serum) (Equus caballus, UniProt P81908); experiment: biochemical
T2 construct: purchased Sigma Aldrich; host or cells: equine serum
T2 sequence (P81908 whole entry): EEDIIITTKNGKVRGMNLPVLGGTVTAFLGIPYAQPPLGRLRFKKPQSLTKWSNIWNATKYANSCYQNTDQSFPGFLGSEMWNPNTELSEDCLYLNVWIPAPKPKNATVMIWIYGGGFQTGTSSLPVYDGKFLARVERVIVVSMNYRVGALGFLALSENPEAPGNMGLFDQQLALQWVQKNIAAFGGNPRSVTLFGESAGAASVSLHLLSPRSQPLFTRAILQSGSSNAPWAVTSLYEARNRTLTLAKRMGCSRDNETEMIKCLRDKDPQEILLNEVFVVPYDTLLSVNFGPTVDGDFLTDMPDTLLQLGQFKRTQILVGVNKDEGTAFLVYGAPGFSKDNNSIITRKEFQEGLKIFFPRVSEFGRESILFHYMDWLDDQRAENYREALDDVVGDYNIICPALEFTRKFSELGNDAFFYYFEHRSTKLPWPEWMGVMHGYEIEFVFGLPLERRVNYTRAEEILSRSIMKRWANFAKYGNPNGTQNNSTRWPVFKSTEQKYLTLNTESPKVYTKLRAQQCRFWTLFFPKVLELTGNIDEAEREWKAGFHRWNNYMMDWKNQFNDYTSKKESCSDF
Procedure: The capacity of the novel cyclopentaquinoline hybrids to inhibit AChE (from the electric eel) and BuChE (from equine serum) were determined by the modified colorimetric Ellman’s method[38]^,[39]. Both enzymes, DTNB – Ellman’s reagent (5,5′-dithiobis-(2-nitrobenzoic acid)), acetyltiocholine iodide (ATCI) were obtained from Sigma Aldrich. AChE and BuChE samples in phosphate buffer (PBS) pH 8.0 were incubated in 96-well plates in the presence of the substrate (ATCI), 76 µl of DTNB and the tested compound at various concentration at room temperature for 10 min (AChE) or eight minutes (BuChE).

T1 sequence (P22303 52-577): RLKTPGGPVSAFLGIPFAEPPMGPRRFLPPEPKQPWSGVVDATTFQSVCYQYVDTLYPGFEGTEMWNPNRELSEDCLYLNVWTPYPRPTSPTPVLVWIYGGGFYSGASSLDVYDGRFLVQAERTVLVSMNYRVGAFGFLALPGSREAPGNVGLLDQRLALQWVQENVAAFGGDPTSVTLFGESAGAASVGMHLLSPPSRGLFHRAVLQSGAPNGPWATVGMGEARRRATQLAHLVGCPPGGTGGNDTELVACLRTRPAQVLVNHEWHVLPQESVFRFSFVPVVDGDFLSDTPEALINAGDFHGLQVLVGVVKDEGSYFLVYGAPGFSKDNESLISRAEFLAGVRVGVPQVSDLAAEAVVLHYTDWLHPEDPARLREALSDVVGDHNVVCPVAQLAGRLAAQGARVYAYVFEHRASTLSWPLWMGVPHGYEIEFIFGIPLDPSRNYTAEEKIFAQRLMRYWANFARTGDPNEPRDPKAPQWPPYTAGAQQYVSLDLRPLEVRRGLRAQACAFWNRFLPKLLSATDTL
T1 sequence (P56817 46-457): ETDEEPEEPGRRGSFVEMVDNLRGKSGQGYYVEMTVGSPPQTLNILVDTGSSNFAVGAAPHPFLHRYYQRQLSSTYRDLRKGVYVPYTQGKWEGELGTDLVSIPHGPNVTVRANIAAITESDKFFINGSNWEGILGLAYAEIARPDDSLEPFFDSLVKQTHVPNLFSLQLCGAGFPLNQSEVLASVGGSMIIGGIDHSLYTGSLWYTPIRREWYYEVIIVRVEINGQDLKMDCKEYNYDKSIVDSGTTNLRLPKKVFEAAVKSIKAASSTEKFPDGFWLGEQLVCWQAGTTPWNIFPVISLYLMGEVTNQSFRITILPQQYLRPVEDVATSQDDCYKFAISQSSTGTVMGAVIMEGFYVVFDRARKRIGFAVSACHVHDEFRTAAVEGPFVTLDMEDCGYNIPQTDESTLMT

O=C(NCCCCCCNc1c2c(nc3ccccc13)CCC2)c1cc(Cl)cc(Cl)c1 [Compound 3e]
β-galactosidase activity (strength of interaction) (ACHE and BACE-1A; 96 h, triplicate): 206.37 ± 4.85 units
hybrid ligand-mediated interaction of ACHE-BACE-1A protein pair (blue colonies) (ACHE and BACE-1A; DDO and QDO/X/A plates): yielded blue colonies
% neuroprotection (SH-SY5Y cells [1]; compound 0.0001 µM): 12.75%
% neuroprotection (SH-SY5Y cells [1]; compound 0.001 µM): 8.67%
% neuroprotection (SH-SY5Y cells [1]; compound 0.01 µM): 2.82%
toxicity towards SHSY5Y cell (SHSY5Y cell): non-toxic
% neuroprotection (SH-SY5Y cells [2]; compound 0.01 µM): 40.04%
% neuroprotection (SH-SY5Y cells [2]; compound 0.1 µM): 79.34%
% neuroprotection (SH-SY5Y cells [2]; compound 1 µM): 71%
Selectivity for BuChE ([3]; IC50(AChE)/IC50(BuChE)): 1.13
IC50 ([3]; means ± SD of three experiments): 116 ± 6 nM
